From PubChem BioAssay (NCI) come the findings set out here.

SMILES strings stand for the structures.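 Protocol summary: plate cells (96-well), add compound at 5 concentrations, incubate 48 h, interpolate endpoints linearly. GI50 = concentration required for 50% inhibition of growth. TGI marks complete inhibition of growth.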 Some results are limits rather than exact numbers.

Some test systems named below: OVCAR-4 ovarian; UO-31 renal; CCRF-CEM leukemia; SN12C renal; UACC-257 melanoma; SF-539 CNS; MALME-3M melanoma; IGROV1 ovarian.
What all share (test): NCI tumour cell line growth inhibition, 48 h

As to `Nc1ccccc1C#Cc1ccccc1C#Cc1cnccn1`, the GI50 is 20.6 µM in the assay on OVCAR-4 ovarian; 12.1 µM with UO-31 renal; 33.2 µM with CCRF-CEM leukemia; 15.2 µM in the assay on SN12C renal; 35.3 µM with UACC-257 melanoma; 17.1 µM with SF-539 CNS. For the same compound, the TGI was 72.3 µM in the assay on OVCAR-4 ovarian; 28.1 µM in the assay on UO-31 renal; more than 100 µM with CCRF-CEM leukemia; 30 µM in the assay on SN12C renal; 79.9 µM with UACC-257 melanoma; 31.6 µM in the assay with SF-539 CNS.
Consider `COC(=O)C1=C(C)N(NC(N)=O)C(C)(O)C12CCOC2=O` (centres undefined), for which the TGI in the assay with MALME-3M melanoma, in the assay on OVCAR-4 ovarian, in the assay on IGROV1 ovarian, with UO-31 renal, with CCRF-CEM leukemia and in the assay with SN12C renal was more than 100 µM in each case. For the same compound, the TGI in the assay on UACC-257 melanoma and in the assay with SF-539 CNS was more than 100 µM each time.
For the compound `O=C(O)[C@@H](NS(=O)(=O)c1ccc([N+](=O)[O-])cc1)c1ccccc1`, the TGI in the assay with MALME-3M melanoma, with OVCAR-4 ovarian, with IGROV1 ovarian, in the assay with UO-31 renal, in the assay with CCRF-CEM leukemia and in the assay with SN12C renal was more than 100 µM each time. The TGI in the assay with UACC-257 melanoma and in the assay with SF-539 CNS was more than 100 µM each time.
For the compound `Cc1c(CC/C(=N\Nc2ccc([N+](=O)[O-])cc2[N+](=O)[O-])c2ccccc2)c2ccccc2n1C`, the TGI is more than 100 µM in the assay on MALME-3M melanoma; more than 100 µM with OVCAR-4 ovarian; more than 100 µM in the assay with IGROV1 ovarian; more than 100 µM with UO-31 renal; more than 66.6 µM in the assay on CCRF-CEM leukemia; more than 100 µM in the assay with SN12C renal. For the same compound, the TGI in the assay on UACC-257 melanoma and with SF-539 CNS was more than 100 µM in each case.
As for `C=C[C@H]1C=Cc2c(OC)cccc2[C@@H]1COP1(=S)NC(C)C(c2ccccc2)O1` (some centres undefined), the TGI in the assay with OVCAR-4 ovarian, in the assay on IGROV1 ovarian, with CCRF-CEM leukemia, with SN12C renal and in the assay with SF-539 CNS was more than 100 µM throughout.
With `COc1ccccc1NC(=O)C(CC(C(=O)Nc1ccccc1OC)/C(C)=N/NC(=O)c1ccccc1O)/C(C)=N/NC(=O)c1ccccc1O` (centres undefined), the TGI with MALME-3M melanoma, in the assay with OVCAR-4 ovarian, with IGROV1 ovarian, in the assay with UO-31 renal, in the assay on CCRF-CEM leukemia and in the assay with SN12C renal was more than 100 µM in each case. Also, the TGI with UACC-257 melanoma and in the assay with SF-539 CNS was more than 100 µM each time.
Consider `CCOC(=O)C(C(=O)OCC)=c1sc(=C(C(=O)OCC)C(=O)OCC)s1`, for which the TGI in the assay with MALME-3M melanoma, in the assay with OVCAR-4 ovarian, in the assay with IGROV1 ovarian, with CCRF-CEM leukemia, in the assay on SN12C renal and in the assay with UACC-257 melanoma was more than 100 µM throughout.
`CC(C)c1cccc(C(C)C)c1NC(=O)CCC(=O)NN`: the TGI in the assay on MALME-3M melanoma, with OVCAR-4 ovarian, in the assay on IGROV1 ovarian, in the assay on UO-31 renal, with CCRF-CEM leukemia and in the assay on SN12C renal was more than 100 µM in each case. Moreover, the TGI in the assay with UACC-257 melanoma and with SF-539 CNS was more than 100 µM throughout.
On to `COC(=O)[C@@]12C=CC(=O)[C@H]3C[C@@H](C(C(C)C)C1)[C@]32OC` (some centres undefined), for which the TGI in the assay with MALME-3M melanoma, in the assay on OVCAR-4 ovarian, in the assay with IGROV1 ovarian, in the assay on CCRF-CEM leukemia, in the assay on SN12C renal and with UACC-257 melanoma was more than 100 µM in each case. For the same compound, the TGI with SF-539 CNS is more than 100 µM.
Regarding `COc1ccc(C2C3=C(COC3=O)Oc3cc4c(cc32)OCO4)cc1` (centres undefined), the TGI with MALME-3M melanoma was more than 100 µM; with OVCAR-4 ovarian, more than 100 µM; with IGROV1 ovarian it was more than 100 µM; in the assay with UO-31 renal, 74 µM; in the assay on CCRF-CEM leukemia, more than 100 µM; in the assay on SN12C renal it was more than 100 µM. The TGI in the assay on UACC-257 melanoma is more than 100 µM; with SF-539 CNS, 56.6 µM.
Consider `CC(CN)[C@@H]1CC[C@]2(CO)CC[C@]3(C)[C@H](CC[C@@H]4[C@@]5(C)CCC(N)C(C)(C)[C@@H]5CC[C@]43C)[C@@H]12` (some centres undefined), for which the GI50 is 1.54 µM in the assay on MALME-3M melanoma; 1.61 µM in the assay with OVCAR-4 ovarian; 1.86 µM with IGROV1 ovarian; 1.55 µM in the assay on UO-31 renal; 1.91 µM with SN12C renal; 1.85 µM with UACC-257 melanoma. Moreover, in the assay with SF-539 CNS, the GI50 is 1.72 µM. Besides, the TGI in the assay on MALME-3M melanoma was 3.29 µM; with OVCAR-4 ovarian, 3.16 µM; with IGROV1 ovarian, 3.78 µM; with UO-31 renal, 3.04 µM; in the assay with SN12C renal it was 3.67 µM; in the assay with UACC-257 melanoma, 3.28 µM. This compound had a TGI in the assay on SF-539 CNS of 3.31 µM.
For `c1ccc2c(c1)[nH]c1c2ncc2[nH]c3ccccc3c21`, the TGI in the assay with MALME-3M melanoma turned out to be 47.1 µM; in the assay on OVCAR-4 ovarian, 3.79 µM; in the assay with IGROV1 ovarian, 22.5 µM; in the assay with UO-31 renal, 8.79 µM; in the assay with CCRF-CEM leukemia, 9.45 µM; in the assay with SN12C renal, 13.6 µM. In addition, the TGI in the assay with SF-539 CNS worked out at 7.21 µM.
